Reference: PubChem BioAssay AID242 (DTP/NCI, 2004)
Where “and” joins values, the source holds several entries; their conditions need not be identical. Equal entries are not always repeated. Toxic doses and inconclusive results are not listed.

Test system: BDF1 mice, Lymphoma 8 ip, survival T/C
Assay: NCI In Vivo Anticancer Drug Screen. Data for tumor model Lymphoma 8 (intraperitoneal) in B6D2F1 (BDF1) mice
Details: higher = longer survival
Experimental: The antitumor activity of compounds was measured in mice bearing transplantable tumors. Survival or tumor size were measured and the results are expressed as the measurement made in the treated group (T) divided by the measurement made in the vehicle treated control group (C). The tumor model used in this assay is Lymphoma 8 (intraperitoneal) in B6D2F1 (BDF1) mice

[1] = endpoint: survival time, mean or median, dose: 50.0 mg/kg/injection, schedule: Q01DX010 (ip), vehicle: saline
[2] = endpoint: survival time, mean or median, dose: 100.0 mg/kg/injection, schedule: Q01DX010 (ip), vehicle: saline
[3] = endpoint: survival time, mean or median, dose: 62.5 mg/kg/injection, schedule: Q01DX010 (ip), vehicle: saline
[4] = endpoint: survival time, mean or median, dose: 125.0 mg/kg/injection, schedule: Q01DX010 (ip), vehicle: saline
[5] = endpoint: survival time, mean or median, dose: 250.0 mg/kg/injection, schedule: Q01DX010 (ip), vehicle: saline
[6] = endpoint: survival time, mean or median, dose: 500.0 mg/kg/injection, schedule: Q01DX010 (ip), vehicle: saline
[7] = endpoint: survival time, mean or median, dose: 5.0 mg/kg/injection, schedule: Q01DX010 (ip), vehicle: saline
[8] = endpoint: survival time, mean or median, dose: 2.0 mg/kg/injection, schedule: Q01DX010 (ip), vehicle: saline
[9] = endpoint: survival time, mean or median, dose: 4.0 mg/kg/injection, schedule: Q01DX010 (ip), vehicle: saline
[10] = endpoint: survival time, mean or median, dose: 12.5 mg/kg/injection, schedule: Q01DX010 (ip), vehicle: saline
[11] = endpoint: survival time, mean or median, dose: 8.0 mg/kg/injection, schedule: Q01DX010 (ip), vehicle: saline

CCN(CC)CCNc1ccc(C)c2sc3ccccc3c(=O)c12
T/C [1]: 122 % of control | T/C [2]: 109 % of control

CN(C)c1nc(N(C)C)nc(N(C)C)n1
T/C (endpoint: survival time, mean or median, dose: 18.8 mg/kg/injection, schedule: Q01DX010 (ip), vehicle: saline): 104 % of control and 122 % of control | T/C (endpoint: survival time, mean or median, dose: 37.5 mg/kg/injection, schedule: Q01DX010 (ip), vehicle: saline): 95 % of control and 113 % of control | T/C (endpoint: survival time, mean or median, dose: 75.0 mg/kg/injection, schedule: Q01DX010 (ip), vehicle: saline): 100 % of control | T/C (endpoint: survival time, mean or median, dose: 150.0 mg/kg/injection, schedule: Q01DX010 (ip), vehicle: saline): 100 % of control

O=c1cn[nH]c(=O)[nH]1
T/C [3]: 95 % of control and 100 % of control and 109 % of control | T/C [4]: 91 % of control and 95 % of control and 110 % of control | T/C [5]: 90 % of control and 93 % of control and 115 % of control | T/C [6]: 100 % of control (2×) and 106 % of control

NC(=O)c1[nH]nc(C2OC(CO)C(O)C2O)c1O (stereo not given)
T/C (endpoint: median survival time, dose: 1.56 mg/kg/injection, schedule: Q04DX003 (ip), vehicle: saline): 100 % of control | T/C (endpoint: median survival time, dose: 2.59 mg/kg/injection, schedule: Q04DX003 (ip), vehicle: saline): 103 % of control | T/C (endpoint: median survival time, dose: 4.32 mg/kg/injection, schedule: Q04DX003 (ip), vehicle: saline): 103 % of control | T/C (endpoint: median survival time, dose: 7.2 mg/kg/injection, schedule: Q04DX003 (ip), vehicle: saline): 104 % of control | T/C (endpoint: median survival time, dose: 12.0 mg/kg/injection, schedule: Q04DX003 (ip), vehicle: saline): 122 % of control | T/C (endpoint: median survival time, dose: 20.0 mg/kg/injection, schedule: Q04DX003 (ip), vehicle: saline): 111 % of control

CN(C)c1ccc(/C=C/c2ccnc3ccccc23)cc1
T/C [7]: 104 % of control and 118 % of control | T/C (endpoint: survival time, mean or median, dose: 10.0 mg/kg/injection, schedule: Q01DX010 (ip), vehicle: saline): 86 % of control and 109 % of control | T/C (endpoint: survival time, mean or median, dose: 20.0 mg/kg/injection, schedule: Q01DX010 (ip), vehicle: saline): 86 % of control and 104 % of control | T/C (endpoint: survival time, mean or median, dose: 40.0 mg/kg/injection, schedule: Q01DX010 (ip), vehicle: saline): 95 % of control and 100 % of control

CCCCOP(=S)(N1CC1)N1CC1
T/C (endpoint: survival time, mean or median, dose: 0.5 mg/kg/injection, schedule: Q01DX010 (ip), vehicle: saline): 100 % of control | T/C (endpoint: survival time, mean or median, dose: 1.0 mg/kg/injection, schedule: Q01DX010 (ip), vehicle: saline): 103 % of control | T/C [8]: 106 % of control | T/C [9]: 103 % of control

O=C(O)CCCc1ccc(N(CCCl)CCCl)cc1
T/C (endpoint: survival time, mean or median, dose: 3.13 mg/kg/injection, schedule: Q01DX010 (ip), vehicle: saline): 100 % of control and 104 % of control | T/C (endpoint: survival time, mean or median, dose: 6.25 mg/kg/injection, schedule: Q01DX010 (ip), vehicle: saline): 104 % of control and 116 % of control | T/C [10]: 104 % of control

Nc1nc2n[nH]nc2c(=O)[nH]1
T/C (endpoint: survival time, mean or median, dose: 25.0 mg/kg/injection, schedule: Q01DX010 (ip), vehicle: alkali diluted with saline): 108 % of control | T/C (endpoint: survival time, mean or median, dose: 50.0 mg/kg/injection, schedule: Q01DX010 (ip), vehicle: alkali diluted with saline): 104 % of control and 112 % of control | T/C (endpoint: survival time, mean or median, dose: 100.0 mg/kg/injection, schedule: Q01DX010 (ip), vehicle: alkali diluted with saline): 112 % of control and 116 % of control | T/C (endpoint: survival time, mean or median, dose: 200.0 mg/kg/injection, schedule: Q01DX010 (ip), vehicle: alkali diluted with saline): 116 % of control

Nc1c(Br)cc2c(c1Br)Cc1cc([N+](=O)[O-])ccc1-2
T/C (endpoint: survival time, mean or median, dose: 62.5 mg/kg/injection, schedule: Q01DX015 (ip), vehicle: carboxymethylcellulose (CMC)): 88 % of control | T/C (endpoint: survival time, mean or median, dose: 125.0 mg/kg/injection, schedule: Q01DX015 (ip), vehicle: carboxymethylcellulose (CMC)): 87 % of control

Nc1nc(=S)c2ncn(C3OC(CO)C(O)C3O)c2[nH]1 (stereo not given)
T/C [9]: 92 % of control | T/C [11]: 89 % of control

COc1cc(-c2ccc(Nc3ccccc3C(=O)O)c(OC)c2)ccc1Nc1ccccc1C(=O)O
T/C (endpoint: survival time, mean or median, dose: 25.0 mg/kg/injection, schedule: Q01DX015 (ip), vehicle: carboxymethylcellulose (CMC)): 101 % of control | T/C (endpoint: survival time, mean or median, dose: 50.0 mg/kg/injection, schedule: Q01DX015 (ip), vehicle: carboxymethylcellulose (CMC)): 89 % of control | T/C (endpoint: survival time, mean or median, dose: 100.0 mg/kg/injection, schedule: Q01DX015 (ip), vehicle: carboxymethylcellulose (CMC)): 96 % of control | T/C (endpoint: survival time, mean or median, dose: 200.0 mg/kg/injection, schedule: Q01DX015 (ip), vehicle: carboxymethylcellulose (CMC)): 90 % of control

CN(N=O)C(=O)N[C@@H](C=O)[C@@H](O)[C@H](O)[C@H](O)CO
T/C (endpoint: survival time, mean or median, dose: 12.5 mg/kg/injection, schedule: Q01DX008 (im), vehicle: saline): 124 % of control | T/C (endpoint: survival time, mean or median, dose: 12.5 mg/kg/injection, schedule: Q01DX008 (ip), vehicle: saline): 116 % of control | T/C (endpoint: survival time, mean or median, dose: 12.5 mg/kg/injection, schedule: Q01DX008 (iv), vehicle: saline): 97 % of control | T/C (endpoint: survival time, mean or median, dose: 12.5 mg/kg/injection, schedule: Q01DX008 (sc), vehicle: saline): 116 % of control | T/C (endpoint: survival time, mean or median, dose: 25.0 mg/kg/injection, schedule: Q01DX008 (ip), vehicle: saline): 115 % of control | T/C (endpoint: survival time, mean or median, dose: 25.0 mg/kg/injection, schedule: Q01DX008 (iv), vehicle: saline): 106 % of control | T/C (endpoint: survival time, mean or median, dose: 25.0 mg/kg/injection, schedule: Q01DX008 (sc), vehicle: saline): 124 % of control | T/C (endpoint: survival time, mean or median, dose: 50.0 mg/kg/injection, schedule: Q01DX008 (iv), vehicle: saline): 107 % of control | T/C (endpoint: survival time, mean or median, dose: 100.0 mg/kg/injection, schedule: Q01DX008 (im), vehicle: saline): 86 % of control | T/C (endpoint: survival time, mean or median, dose: 100.0 mg/kg/injection, schedule: Q01DX008 (ip), vehicle: saline): 96 % of control | T/C (endpoint: survival time, mean or median, dose: 100.0 mg/kg/injection, schedule: Q01DX008 (iv), vehicle: saline): 106 % of control | T/C (endpoint: survival time, mean or median, dose: 100.0 mg/kg/injection, schedule: Q01DX Z (oral), vehicle: saline): 100 % of control | T/C (endpoint: survival time, mean or median, dose: 200.0 mg/kg/injection, schedule: Q01DX Z (oral), vehicle: saline): 100 % of control | T/C (endpoint: survival time, mean or median, dose: 400.0 mg/kg/injection, schedule: Q01DX Z (oral), vehicle: saline): 117 % of control | T/C (endpoint: survival time, mean or median, dose: 800.0 mg/kg/injection, schedule: Q01DX Z (oral), vehicle: saline): 97 % of control

Clc1ncnc2nc[nH]c12
T/C (endpoint: survival time, mean or median, dose: 7.5 mg/kg/injection, schedule: Q01DX010 (ip), vehicle: saline): 100 % of control | T/C (endpoint: survival time, mean or median, dose: 15.0 mg/kg/injection, schedule: Q01DX010 (ip), vehicle: saline): 100 % of control | T/C (endpoint: survival time, mean or median, dose: 30.0 mg/kg/injection, schedule: Q01DX010 (ip), vehicle: saline): 110 % of control | T/C (endpoint: survival time, mean or median, dose: 60.0 mg/kg/injection, schedule: Q01DX010 (ip), vehicle: saline): 100 % of control

CC(CCC(C)OS(C)(=O)=O)OS(C)(=O)=O (stereo not given)
T/C [8]: 92 % of control and 100 % of control | T/C [9]: 103 % of control and 104 % of control | T/C [11]: 103 % of control and 104 % of control | T/C (endpoint: survival time, mean or median, dose: 16.0 mg/kg/injection, schedule: Q01DX010 (ip), vehicle: saline): 100 % of control and 116 % of control

N[C@@H](Cc1ccc(N(CCCl)CCCl)cc1)C(=O)O
T/C (endpoint: survival time, mean or median, dose: 4.0 mg/kg/injection, schedule: Q01DX015 (ip), vehicle: carboxymethylcellulose (CMC)): 91 % of control

CCCCN(CCCC)CCCCCN
T/C (endpoint: survival time, mean or median, dose: 5.0 mg/kg/injection, schedule: Q01DX015 (ip), vehicle: carboxymethylcellulose (CMC)): 99 % of control | T/C (endpoint: survival time, mean or median, dose: 10.0 mg/kg/injection, schedule: Q01DX015 (ip), vehicle: carboxymethylcellulose (CMC)): 101 % of control | T/C (endpoint: survival time, mean or median, dose: 20.0 mg/kg/injection, schedule: Q01DX015 (ip), vehicle: carboxymethylcellulose (CMC)): 104 % of control | T/C (endpoint: survival time, mean or median, dose: 30.0 mg/kg/injection, schedule: Q01DX015 (ip), vehicle: carboxymethylcellulose (CMC)): 99 % of control

NC(C/[N+]([O-])=N/O)C(=O)O (stereo not given)
T/C (endpoint: median survival time, dose: 12.5 mg/kg/injection, schedule: Q01DX009 (ip), vehicle: saline): 113 % of control | T/C (endpoint: median survival time, dose: 25.0 mg/kg/injection, schedule: Q01DX009 (ip), vehicle: saline): 117 % of control

Oc1cc(CN(CCCl)CCCl)c(O)cc1CN(CCCl)CCCl
T/C (endpoint: survival time, mean or median, dose: 0.63 mg/kg/injection, schedule: Q01DX010 (ip), vehicle: saline): 104 % of control and 107 % of control | T/C (endpoint: survival time, mean or median, dose: 1.25 mg/kg/injection, schedule: Q01DX010 (ip), vehicle: saline): 104 % of control | T/C [7]: 103 % of control and 120 % of control

CC(=O)N(C)C
T/C [3]: 86 % of control and 105 % of control and 121 % of control | T/C [4]: 95 % of control and 100 % of control and 112 % of control | T/C [5]: 95 % of control and 105 % of control | T/C [6]: 95 % of control and 100 % of control and 115 % of control

CS(=O)(=O)OCCC(=O)N1CCN(C(=O)CCOS(C)(=O)=O)CC1
T/C [10]: 116 % of control | T/C (endpoint: survival time, mean or median, dose: 25.0 mg/kg/injection, schedule: Q01DX010 (ip), vehicle: saline): 123 % of control | T/C [1]: 156 % of control | T/C [2]: 203 % of control
